Reference: US20140155376A1, “PYRROLOPYRAZINE KINASE INHIBITORS” (Hoffmann-La Roche Inc., priority 2010, published 2014)

Biological target: T1, JAK3 (recombinant human kinase domain; h-jak3(810-1124)) (Homo sapiens, UniProt P52333)
T1 construct: h-jak3(810- 1124)-sf9-c; made in house; host or cells: Sf9 insect cells
Experiment: Determination of IC50 of Janus Kinase (JAK) inhibition: JAK3, radioactive end-point assay with 33P-ATP
Assay type: biochemical
Settings: JAK3 kinase domain; ATP 1.5 uM, peptide 50 uM, 20 minutes, room temperature, 10% DMSO; read-out: Ic50 h-jak3(810-1124)-sf9-c:no additive
Source text: Determination of IC50 of Janus Kinase (JAK) Inhibition:
Enzymes and peptide substrate used are described below: • JAK1: Recombinant human kinase domain from Invitrogen (Cat # PV4774) • JAK3: Recombinant human kinase domain from Millipore (Cat #14-629) or prepared. • JAK2: Recombinant human kinase domain from Millipore (Cat #14-640) • Substrate: N-terminally biotinylated 14-mer peptide derived from activation loop of JAK1 with sequence of the peptide substrate: Biotin-[sequence]
Assay Conditions Used are Described Below: • Assay Buffer: JAK Kinase Buffer: 50 mM Hepes [pH 7.2], 10 mM MgCl2, 1 mM DTT, • 1 mg/ml BSA. The assay is carried out in this buffer. • Assay Format The kinase activity of all three JAK kinases is measured using a radioactive, end-point assay and with trace amounts of ^33P-ATP. The assays are carried out in 96-well polypropylene plates.
All concentrations are final in the reaction mixture and all incubations are carried at room temperature. […] Final concentration of DMSO in the reaction is 10%. • 2) Compounds are preincubated with enzyme (0.5 nM JAK3 (commercially available), 0.2 nM JAK3 (prepared), 1 nM JAK2, 5 nM JAK1) for 10 minutes. • 3) Reactions are initiated by the addition of a cocktail of the two substrates (ATP and peptide premixed in the JAK Kinase Buffer). In the JAK2/JAK3 assays, ATP and the peptide are used at concentrations of 1.5 uM and 50 uM, respectively. JAK1 assay is carried out at an ATP concentration of 10 uM and a peptide concentration of 50 uM. • 4) The duration of the assay for JAK2 and JAK3 is 20 minutes. JAK1 assay is carried out for 40 minutes. With all three enzymes, reactions are terminated by the addition of 0.5M EDTA to a final concentration of 100 mM. • 5) 25 ul of terminated reactions are transferred to 150 ul of a 7.5% (v/v) slurry of streptavidin-coated sepharose beads in MgCl2- and CaCl2-free 1× Phosphate Buffered Saline containing 50 mM of EDTA in 96-well, 1.2 um MultiScreen-BV filter plates. • 6) After a 30-minute incubation, the beads are washed under vacuum with the following buffers: • a. 3 to 4 washes with 200 ul of 2M NaCl. • b. 3 to 4 washes with 200 ul of 2M NaCl plus 1% (v/v) phosphoric acid. • c. 1 wash with water. • 7) Washed plates are dried in a 60° C. oven for between 1 to 2 hours. • 8) 70 ul of Microscint 20 scintillation fluid is added to each well of filter plates and after at least 30 minutes of incubation, radioactive counts are measured in a Perkin-Elmer microplate scintillation counter.

T1 sequence (P52333 810-1124): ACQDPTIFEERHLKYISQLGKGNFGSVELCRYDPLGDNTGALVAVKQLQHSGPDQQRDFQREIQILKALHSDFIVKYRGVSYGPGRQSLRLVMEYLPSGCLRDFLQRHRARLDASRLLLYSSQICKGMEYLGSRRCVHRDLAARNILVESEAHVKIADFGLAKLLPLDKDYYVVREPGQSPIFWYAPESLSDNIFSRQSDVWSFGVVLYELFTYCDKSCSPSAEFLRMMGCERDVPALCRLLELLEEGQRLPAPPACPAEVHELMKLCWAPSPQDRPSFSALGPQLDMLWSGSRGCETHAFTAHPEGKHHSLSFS

IC50 | Compound
4030 nM | CCNC(=O)c1c[nH]c2ncc(Oc3cccc(C(F)(F)F)c3)nc12 [Example I-251, 2-(3-Trifluoromethyl-phenoxy)-5H-pyrrolo[2,3-b]pyrazine-7-carboxylic acid ethylamide]
84.5 nM | CC(C)(O)C(CCO)NC(=O)c1c[nH]c2ncc(C3CC3)nc12 (centres unmarked) [Example I-17, 2-Cyclopropyl-5H-pyrrolo[2,3-b]pyrazine-7-carboxylic acid [2-hydroxy-1-(2-hydroxy-ethyl)-2-methyl-propyl]-amide]
34.9 nM | CN(C)c1cnc2[nH]cc(C(=O)NCC(C)(C)CO)c2n1 [Example I-4, 2-Dimethylamino-5H-pyrrolo[2,3-b]pyrazine-7-carboxylic acid (3-hydroxy-2,2-dimethyl-propyl)-amide]
29.4 nM | CC(C)(C)CNC(=O)c1c[nH]c2ncc(C3CC3)nc12 [Example I-55, 2-Cyclopropyl-5H-pyrrolo[2,3-b]pyrazine-7-carboxylic acid (2,2-dimethyl-propyl)-amide]
140 nM | CC(C)NC(=O)c1c[nH]c2ncc(Oc3ccc4c(c3)[C@H](O)CC4)nc12 [Example I-303, 2-((R)-3-Hydroxy-indan-5-yloxy)-5H-pyrrolo[2,3-b]pyrazine-7-carboxylic acid isopropylamide]
0.32 nM | C[C@H](NC(=O)c1c[nH]c2ncc(-c3ccc(C(=O)N4CCC(C#N)CC4)s3)nc12)C(C)(C)C [Example I-167, 2-[5-(4-Cyano-piperidine-1-carbonyl)-thiophen-2-yl]-5H-pyrrolo[2,3-b]pyrazine-7-carboxylic acid ((S)-1,2,2-trimethyl-propyl)-amide]
387 nM | CC(=O)N[C@@H]1CCc2ccc(Oc3cnc4[nH]cc(C(=O)NC(C)C#N)c4n3)cc21 (stereo partly drawn) [Example I-298, 2-((R)-3-Acetylamino-indan-5-yloxy)-5H-pyrrolo[2,3-b]pyrazine-7-carboxylic acid (cyano-methyl-methyl)-amide]
0.76 nM | C[C@H](NC(=O)c1c[nH]c2ncc(-c3ccc(C(=O)N(C)Cc4ccc(F)cc4)s3)nc12)C(C)(C)C [Example I-205, 2-{5-[(4-Fluoro-benzyl)-methyl-carbamoyl]-thiophen-2-yl}-5H-pyrrolo[2,3-b]pyrazine-7-carboxylic acid ((S)-1,2,2-trimethyl-propyl)-amide]
63.4 nM | CC(NC(=O)c1c[nH]c2ncc(Oc3ccccc3F)nc12)C1CC1 (centres unmarked) [Example I-114, 2-(2-Fluoro-phenoxy)-5H-pyrrolo[2,3-b]pyrazine-7-carboxylic acid (1-cyclopropyl-ethyl)-amide]
310 nM | CC(C)NC(=O)c1c[nH]c2ncc(Oc3cccc(Cl)c3)nc12 [Example I-243, 2-(3-Chloro-phenoxy)-5H-pyrrolo[2,3-b]pyrazine-7-carboxylic acid isopropylamide]
4.51 nM | C[C@H](NC(=O)c1c[nH]c2ncc(C3=CCCCC3)nc12)C(C)(C)O [Example I-7, 2-Cyclohex-1-enyl-5H-pyrrolo[2,3-b]pyrazine-7-carboxylic acid ((S)-2-hydroxy-1,2-dimethyl-propyl)-amide]

The remaining lines, values behind:

Compound | IC50
C[C@H](NC(=O)c1c[nH]c2ncc(Oc3ccccc3)nc12)C1CCCCC1 [Example I-123, 2-Phenoxy-5H-pyrrolo[2,3-b]pyrazine-7-carboxylic acid ((S)-1-cyclohexyl-ethyl)-amide] | 1330 nM
CC(C)(CCO)NC(=O)c1c[nH]c2ncc(C3CC3)nc12 [Example I-42, 2-Cyclopropyl-5H-pyrrolo[2,3-b]pyrazine-7-carboxylic acid (3-hydroxy-1,1-dimethyl-propyl)-amide] | 131 nM
C[C@@H](NC(=O)c1c[nH]c2ncc(C3CC3)nc12)C1(C#N)CCCCC1 [Example I-117, 2-Cyclopropyl-5H-pyrrolo[2,3-b]pyrazine-7-carboxylic acid [(R)-1-(1-cyano-cyclohexyl)-ethyl]-amide] | 26.8 nM
C[C@H](NC(=O)c1c[nH]c2ncc(-c3ccc(C(=O)N4CC(C(N)=O)C4)s3)nc12)C(C)(C)C [Example I-179, 2-[5-(3-Carbamoyl-azetidine-1-carbonyl)-thiophen-2-yl]-5H-pyrrolo[2,3-b]pyrazine-7-carboxylic acid ((S)-1,2,2-trimethyl-propyl)-amide] | 0.32 nM
COCC(C)NC(=O)c1ccc(-c2cnc3[nH]cc(C(=O)N[C@@H](C)C(C)(C)C)c3n2)s1 (stereo partly drawn) [Example I-214, 2-[5-(2-Methoxy-1-methyl-ethylcarbamoyl)-thiophen-2-yl]-5H-pyrrolo[2,3-b]pyrazine-7-carboxylic acid ((S)-1,2,2-trimethyl-propyl)-amide] | 0.28 nM
CCNC(=O)c1c[nH]c2ncc(Oc3cc(OC)cc(OC)c3)nc12 [Example I-263, 2-(3,5-Dimethoxy-phenoxy)-5H-pyrrolo[2,3-b]pyrazine-7-carboxylic acid ethylamide] | 2350 nM
C[C@H](NC(=O)c1c[nH]c2ncc(C3CC3)nc12)c1cc[nH]n1 [Example I-37, 2-Cyclopropyl-5H-pyrrolo[2,3-b]pyrazine-7-carboxylic acid [(S)-1-(1H-pyrazol-3-yl)-ethyl]-amide] | 22 nM
CC(C)(O)C(C)(C)NC(=O)c1c[nH]c2ncc(C3CC3)nc12 [Example I-79, 2-Cyclopropyl-5H-pyrrolo[2,3-b]pyrazine-7-carboxylic acid (2-hydroxy-1,1,2-trimethyl-propyl)-amide] | 40.7 nM
Cc1csc(CNC(=O)c2ccc(-c3cnc4[nH]cc(C(=O)N[C@@H](C)C(C)(C)C)c4n3)s2)c1 [Example I-192, 2-{5-[(4-Methyl-thiophen-2-ylmethyl)-carbamoyl]-thiophen-2-yl}-5H-pyrrolo[2,3-b]pyrazine-7-carboxylic acid ((S)-1,2,2-trimethyl-propyl)-amide] | 0.4 nM
CCC(CC)NC(=O)c1c[nH]c2ncc(C3CC3)nc12 [Example I-26, 2-Cyclopropyl-5H-pyrrolo[2,3-b]pyrazine-7-carboxylic acid (1-ethyl-propyl)-amide] | 4.08 nM
C[C@H](NC(=O)c1c[nH]c2ncc(-c3ccc(C(=O)NCc4cccc(Cl)c4Cl)s3)nc12)C(C)(C)C [Example I-186, 2-[5-(2,3-Dichloro-benzylcarbamoyl)-thiophen-2-yl]-5H-pyrrolo[2,3-b]pyrazine-7-carboxylic acid ((S)-1,2,2-trimethyl-propyl)-amide] | 0.46 nM
CC(C)(CO)CNC(=O)c1c[nH]c2ncc(C(F)(F)F)nc12 [Example I-35, 2-Trifluoromethyl-5H-pyrrolo[2,3-b]pyrazine-7-carboxylic acid (3-hydroxy-2,2-dimethyl-propyl)-amide] | 1040 nM
C[C@H](CS(C)(=O)=O)NC(=O)c1ccc(-c2cnc3[nH]cc(C(=O)N[C@@H](C)C(C)(C)C)c3n2)s1 [Example I-211, 2-[5-((R)-2-Methanesulfonyl-1-methyl-ethylcarbamoyl)-thiophen-2-yl]-5H-pyrrolo[2,3-b]pyrazine-7-carboxylic acid ((S)-1,2,2-trimethyl-propyl)-amide] | 0.22 nM
C[C@H](NC(=O)c1c[nH]c2ncc(C3CC3)nc12)[C@](C)(O)C(F)(F)F [Example I-63, 2-Cyclopropyl-5H-pyrrolo[2,3-b]pyrazine-7-carboxylic acid ((1S,2S)-3,3,3-trifluoro-2-hydroxy-1,2-dimethyl-propyl)-amide] | 30.5 nM
CC(C)[C@H](C)NC(=O)c1c[nH]c2ncc(C3CC3)nc12 [Example I-25, 2-Cyclopropyl-5H-pyrrolo[2,3-b]pyrazine-7-carboxylic acid ((S)-1,2-dimethyl-propyl)-amide] | 6.73 nM
CC(C)NC(=O)c1c[nH]c2ncc(Oc3cccc4ccccc34)nc12 [Example I-241, 2-(Naphthalen-1-yloxy)-5H-pyrrolo[2,3-b]pyrazine-7-carboxylic acid isopropylamide] | 677 nM
CCNC(=O)c1c[nH]c2ncc(Oc3cccc(C)c3)nc12 [Example I-248, 2-m-Tolyloxy-5H-pyrrolo[2,3-b]pyrazine-7-carboxylic acid ethylamide] | 1030 nM
CCNC(=O)c1c[nH]c2ncc(Oc3ccc(C#N)cc3)nc12 [Example I-267, 2-(4-Cyano-phenoxy)-5H-pyrrolo[2,3-b]pyrazine-7-carboxylic acid ethylamide] | 2360 nM
C[C@H](NC(=O)c1c[nH]c2ncc(C3CC3)nc12)C1(C#N)CCCCC1 [Example I-118, 2-Cyclopropyl-5H-pyrrolo[2,3-b]pyrazine-7-carboxylic acid [(S)-1-(1-cyano-cyclohexyl)-ethyl]-amide] | 150 nM
CC(C)NC(=O)c1c[nH]c2ncc(Oc3ccc4c(c3)C(O)CC4)nc12 (centres unmarked) [Example I-293, 2-(3-Hydroxy-indan-5-yloxy)-5H-pyrrolo[2,3-b]pyrazine-7-carboxylic acid isopropylamide] | 162 nM
C[C@H](NC(=O)c1c[nH]c2ncc(-c3ccc(C(=O)NC4CCOCC4)s3)nc12)C(C)(C)C#N [Example I-223, 2-[5-(Tetrahydro-pyran-4-ylcarbamoyl)-thiophen-2-yl]-5H-pyrrolo[2,3-b]pyrazine-7-carboxylic acid ((S)-2-cyano-1,2,2-trimethyl-ethyl)-amide] | 0.91 nM
O=C(NCC1CCCCC1)c1c[nH]c2ncc(C3CC3)nc12 [Example I-107, 2-Cyclopropyl-5H-pyrrolo[2,3-b]pyrazine-7-carboxylic acid cyclohexylmethyl-amide] | 61.3 nM
CC(NC(=O)c1c[nH]c2ncc(C3CC3)nc12)C1CCOCC1 (centres unmarked) [Example I-85, 2-Cyclopropyl-5H-pyrrolo[2,3-b]pyrazine-7-carboxylic acid [1-(tetrahydro-pyran-4-yl)-ethyl]-amide] | 72.5 nM
CCCC[C@H](NC(=O)c1c[nH]c2ncc(C3CC3)nc12)C(C)(C)O [Example I-49, 2-Cyclopropyl-5H-pyrrolo[2,3-b]pyrazine-7-carboxylic acid [(S)-1-(1-hydroxy-1-methyl-ethyl)-pentyl]-amide] | 453 nM
